Reference: patent publication US20250179066A1, “ZWITTERIONIC ANTIBACTERIAL COMPOUNDS” (Hoffmann-La Roche Inc., priority 2022, published 2025)
Where a name gives a salt, the structure may show the parent alone.

Tested on: Acinetobacter baumannii ATCC17961
Assay: Antimicrobial susceptibility testing: 90% growth inhibitory concentration (IC90) determination
Type: cell-based
Settings: 90% growth inhibitory concentration against Acinetobacter baumannii ATCC17961, Iso-Sensitest broth, OD 600 nm over 16 h; read-out: ATCC 17961 IC90
In short: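 OD600 monitored each minute over 16 h at 35±2° C for bacteria (~5×10^5 CFU/mL final) in Iso-Sensitest medium with 10-point twofold compound series (e.g. 10-0.0195 μM final). Concentration giving 90% growth inhibition in log phase reported as IC90.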

Molecule	IC90 [nM]
cis-2-[4-[4-[4-[[5-[1-(4-Amino-2-fluoro-phenyl)-3-(difluoromethyl) pyrazol-4-yl]-1-methyl-imidazole-2-carbonyl]amino]-2-chloro-benzoyl]piperazine-1-carbonyl]-1-(azetidin-3-ylmethyl)piperidin-1-ium-1-yl]acetic Acid;2,2,2-trifluoroacetate [Example 128]	358

Same assay, conditions: Acinetobacter baumannii, ATCC17961, 16 h, 90% growth inhibitory concentration against Acinetobacter baumannii ATCC17961, Iso-Sensitest broth, OD 600 nm over 16 h; read-out: ATCC 17961 IC90

Molecule	IC90 [nM]
Cn1c(-c2cn(-c3ccc4[nH]c(CCCO)cc4n3)nc2C(F)(F)F)cnc1C(=O)Nc1ccc(C(=O)N2CCN(C(=O)C3CC[N+](CCCN)(CC(=O)O)CC3)CC2)c(Cl)c1 (stereo not drawn) [Example 98, cis-2-[1-(3-aminopropyl)-4-[4-[2-chloro-4-[[5-[1-[2-(3-hydroxypropyl)-1H-pyrrolo[3,2-b]pyridin-5-yl]-3-(trifluoromethyl)pyrazol-4-yl]-1-methyl-imidazole-2-carbonyl]amino]benzoyl]piperazine-1-carbonyl]piperidin-1-ium-1-yl]acetic acid;chloride]	387
Cn1c(-c2cn(-c3ccc(N)cc3F)nc2C(F)(F)F)cnc1C(=O)Nc1ccc(C(=O)N2CCN(C(=O)CCC[N+](CCCN)(CCCN)CC(=O)O)CC2)c(Cl)c1 [Example 183, [4-[4-[4-[[5-[1-(4-amino-2-fluoro-phenyl)-3-(trifluoromethyl)pyrazol-4-yl]-1-methyl-imidazole-2-carbonyl]amino]-2-chloro-benzoyl]piperazin-1-yl]-4-oxo-butyl]-bis(3-aminopropyl)-(carboxymethyl)ammonium;formate]	108
Cc1cc(NC(=O)c2ncc(-c3cn(-c4ccc5[nH]c([C@H](C)O)cc5n4)nc3C(F)(F)F)n2C)ccc1C(=O)N1CCN(C(=O)[C@H]2CC[N@@+](CCCN)(CC(=O)O)CC2)CC1 [Example 101, cis-2-[1-(3-aminopropyl)-4-[4-[4-[[5-[1-[2-[(1S)-1-hydroxyethyl]-1H-pyrrolo[3,2-b]pyridin-5-yl]-3-(trifluoromethyl)pyrazol-4-yl]-1-methyl-imidazole-2-carbonyl]amino]-2-methyl-benzoyl]piperazine-1-carbonyl]piperidin-1-ium-1-yl]acetic acid;chloride]	338
COCCNc1ccc(-n2cc(-c3cnc(C(=O)Nc4ccc(C(=O)N5CCN(C(=O)[C@H]6CC[N@+](CC(=O)O)(CC7CNC7)CC6)CC5)c(Cl)c4)n3C)c(C(F)(F)F)n2)nc1 [Example 31, cis-2-[1-(Azetidin-3-ylmethyl)-4-[4-[2-chloro-4-[[5-[1-[5-(2-methoxyethylamino)-2-pyridyl]-3-(trifluoromethyl)pyrazol-4-yl]-1-methyl-imidazole-2-carbonyl]amino]benzoyl]piperazine-1-carbonyl]piperidin-1-ium-1-yl]acetic Acid;2,2,2-trifluoroacetate]	370
Cn1c(-c2cn(-c3ccc4c(cc(C(=O)NCCO)n4C)n3)nc2C(F)(F)F)cnc1C(=O)Nc1ccc(C(=O)N2CCN(C(=O)[C@H]3CC[N@@+](CCCN)(CC(=O)O)CC3)CC2)c(Cl)c1 [Example 104, cis-2-[1-(3-aminopropyl)-4-[4-[2-chloro-4-[[5-[1-[2-(2-hydroxyethylcarbamoyl)-1-methyl-pyrrolo[3,2-b]pyridin-5-yl]-3-(trifluoromethyl)pyrazol-4-yl]-1-methyl-imidazole-2-carbonyl]amino]benzoyl]piperazine-1-carbonyl]piperidin-1-ium-1-yl]acetic acid;chloride]	783
Cn1c(-c2cn(-c3ccc(N)cn3)nc2C(F)(F)F)cnc1C(=O)Nc1ccc(C(=O)N2CCN(C(=O)C3CC[N+](CCCN)(CC(=O)O)CC3)CC2)c(Cl)c1 (centres unmarked) [Example 30, 2-[1-(3-aminopropyl)-4-[4-[4-[[5-[1-(5-amino-2-pyridyl)-3-(trifluoromethyl)pyrazol-4-yl]-1-methyl-imidazole-2-carbonyl]amino]-2-chloro-benzoyl]piperazine-1-carbonyl]piperidin-1-ium-1-yl]acetic acid. 1:1 2,2,2-trifluoroacetate]	370
Cc1cc(NC(=O)c2ncc(-c3cn(-c4ccc5[nH]c(CO)cc5n4)nc3C(F)(F)F)n2C)ccc1C(=O)N1CCN(C(=O)[C@H]2CC[N@+](CC(=O)O)(CC3CNC3)CC2)CC1 [Example 153, cis-2-[1-(azetidin-3-ylmethyl)-4-[4-[2-methyl-4-[[1-methyl-5-[1-(2-methylol-1H-pyrrolo[3,2-b]pyridin-5-yl)-3-(trifluoromethyl)pyrazol-4-yl]imidazole-2-carbonyl]amino]benzoyl]piperazine-1-carbonyl]piperidin-1-ium-1-yl]acetic acid. 1:1 2,2,2-trifluoroacetate]	384

Now from value to molecule:

IC90 [nM]	Molecule
520	Cn1c(-c2cn(-c3ccc(N)cn3)nc2C(F)(F)F)cnc1C(=O)Nc1ccc(C(=O)N2CCN(C(=O)CCC[N+](CC(=O)O)(CC3CNC3)CC3CNC3)CC2)c(Cl)c1 [Example 50, [4-[4-[4-[[5-[1-(5-amino-2-pyridyl)-3-(trifluoromethyl)pyrazol-4-yl]-1-methyl-imidazole-2-carbonyl]amino]-2-chloro-benzoyl]piperazino]-4-keto-butyl]-bis(azetidin-3-ylmethyl)-(carboxymethyl)ammonium. 1:1 2,2,2-trifluoroacetic acid. 1:1 2,2,2-trifluoroacetate]
160	Cn1c(-c2cn(-c3ccc(NCCCN)cc3F)nc2C(F)(F)F)cnc1C(=O)Nc1ccc(C(=O)N2CCN(C(=O)[C@H]3CC[N@+](CC(=O)O)(CC4CNC4)CC3)CC2)c(Cl)c1 [Example 186, cis-2-[4-[4-[4-[[5-[1-[4-(3-aminopropylamino)-2-fluoro-phenyl]-3-(trifluoromethyl)pyrazol-4-yl]-1-methyl-imidazole-2-carbonyl]amino]-2-chloro-benzoyl]piperazine-1-carbonyl]-1-(azetidin-3-ylmethyl)piperidin-1-ium-1-yl]acetic Acid.1:1 formate]
1120	C[C@H]1CN(C(=O)C2CC[N+](CC(=O)O)(CC3CNC3)CC2)CCN1C(=O)c1ccc(NC(=O)c2ncc(-c3cn(-c4ccc(N)cn4)nc3C(F)(F)F)n2C)cc1Cl (stereo partly drawn) [Example 79, 2-[4-[(3S)-4-[4-[[5-[1-(5-amino-2-pyridyl)-3-(trifluoromethyl)pyrazol-4-yl]-1-methyl-imidazole-2-carbonyl]amino]-2-chloro-benzoyl]-3-methyl-piperazine-1-carbonyl]-1-(azetidin-3-ylmethyl)piperidin-1-ium-1-yl]acetic acid. 1:1 formate]
334	Cn1c(-c2cn(-c3ccc(NC[C@H](O)CO)cc3F)nc2C(F)(F)F)cnc1C(=O)Nc1ccc(C(=O)N2CCN(C(=O)[C@H]3CC[N@+](CC(=O)O)(CC4CNC4)CC3)CC2)c(Cl)c1 [Example 137, cis-2-[1-(azetidin-3-ylmethyl)-4-[4-[2-chloro-4-[[5-[1-[4-[[(2S)-2,3-dihydroxypropyl]amino]-2-fluoro-phenyl]-3-(trifluoromethyl)pyrazol-4-yl]-1-methyl-imidazole-2-carbonyl]amino]benzoyl]piperazine-1-carbonyl]piperidin-1-ium-1-yl]acetic acid;formate]
1480	Cn1c(-c2cn(-c3ccc(N)nc3)nc2C(F)(F)F)cnc1C(=O)Nc1ccc(C(=O)N2CCN(C(=O)C3CC[N+](CC(=O)O)(CC4CNC4)CC3)CC2)c(Cl)c1 (centres unmarked) [Example 7, 2-[4-[4-[4-[[5-[1-(6-amino-3-pyridyl)-3-(trifluoromethyl)pyrazol-4-yl]-1-methyl-imidazole-2-carbonyl]amino]-2-chloro-benzoyl]piperazine-1-carbonyl]-1-(azetidin-3-ylmethyl)piperidin-1-ium-1-yl]acetic acid. 1:1 2,2,2-trifluoroacetate]
260	Cn1c(-c2cn(-c3ccc4[nH]ccc4n3)nc2C(F)(F)F)cnc1C(=O)Nc1ccc(C(=O)N2CCN(C(=O)C3CC[N+](CC(=O)O)(CC4CNC4)CC3)CC2)c(Cl)c1 (centres unmarked) [Example 18, 2-[1-(azetidin-3-ylmethyl)-4-[4-[2-chloro-4-[[1-methyl-5-[1-(1H-pyrrolo[3,2-b]pyridin-5-yl)-3-(trifluoromethyl)pyrazol-4-yl]imidazole-2-carbonyl]amino]benzoyl]piperazine-1-carbonyl]piperidin-1-ium-1-yl]acetic acid. 1:1 formate]
180	Cn1c(-c2cn(-c3ccc(NCCN)cn3)nc2C(F)(F)F)cnc1C(=O)Nc1ccc(C(=O)N2CCN(C(=O)C3CC[N+](CC(=O)O)(CC4CNC4)CC3)CC2)c(Cl)c1 (centres unmarked) [Example 12, 2-[4-[4-[4-[[5-[1-[5-(2-aminoethylamino)-2-pyridyl]-3-(trifluoromethyl)pyrazol-4-yl]-1-methyl-imidazole-2-carbonyl]amino]-2-chloro-benzoyl]piperazine-1-carbonyl]-1-(azetidin-3-ylmethyl)piperidin-1-ium-1-yl]acetic acid. 1:1 2,2,2-trifluoroacetic acid. 1:1 2,2,2-trifluoroacetate]
611	Cn1c(-c2cn(-c3ccc4[nH]c([C@@H](O)CO)cc4n3)nc2C(F)(F)F)cnc1C(=O)Nc1ccc(C(=O)N2CCN(C(=O)[C@H]3CC[N@+](CC(=O)O)(CC4CNC4)CC3)CC2)c(Cl)c1 [Example 106, cis-2-[1-(azetidin-3-ylmethyl)-4-[4-[2-chloro-4-[[5-[1-[2-[(1R)-1,2-dihydroxyethyl]-1H-pyrrolo[3,2-b]pyridin-5-yl]-3-(trifluoromethyl)pyrazol-4-yl]-1-methyl-imidazole-2-carbonyl]amino]benzoyl]piperazine-1-carbonyl]piperidin-1-ium-1-yl]acetic acid;chloride]
370	Cn1c(-c2cn(-c3ccc4c(ccn4CCO)n3)nc2C(F)(F)F)cnc1C(=O)Nc1ccc(C(=O)N2CCN(C(=O)[C@H]3CC[N@+](CC(=O)O)(CC4CNC4)CC3)CC2)c(Cl)c1 [Example 198, cis-2-[1-(azetidin-3-ylmethyl)-4-[4-[2-chloro-4-[[5-[1-[1-(2-hydroxyethyl)pyrrolo[3,2-b]pyridin-5-yl]-3-(trifluoromethyl)pyrazol-4-yl]-1-methyl-imidazole-2-carbonyl]amino]benzoyl]piperazine-1-carbonyl]piperidin-1-ium-1-yl]acetic acid. 1:1 2,2,2-trifluoroacetate]
